Paper PMC2928168, “Na^+-stimulated ATPase of alkaliphilic halotolerant cyanobacterium Aphanothece halophytica translocates Na^+ into proteoliposomes via Na^+ uniport mechanism” (BMC Biochemistry, 2010)

Tested on: T1, Na+-stimulated ATPase (likely F1F0-ATPase)
T1 construct: gene atpD
Assay: inorganic phosphate release, Lineweaver-Burk plot
Assay type: biochemical, Aphanothece halophytica
Conditions: 20 mM Tris-HCl pH 7.6, 5 mM MgCl2, 10 mM NaCl; detergent-solubilised enzyme; read-out: apparent Km

Nc1ncnc2c1ncn2[C@@H]1O[C@H](COP(=O)(O)OP(=O)(O)OP(=O)(O)O)[C@@H](O)[C@H]1O [ATP]
Km: 1200 µM
